Measured values: the supplement of paper PMC10307832

What was measured:
Test in all cases: relative viability (nuclei count vs DMSO), 5 days (fraction); higher = more cells survive
[1] = compound: CCn1c(-c2nonc2N)nc2c(C#CC(C)(C)O)ncc(OC[C@H]3CCCNC3)c21 + Cc1cc(Nc2cc(N3CCN(C)CC3)nc(Sc3ccc(NC(=O)C4CC4)cc3)n2)n[nH]1 [Tozasertib] (partner 0.1 µM)
In short: (§1)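 Lung cancer cell lines were pin-tool dosed in 1536-well plates on the day after seeding, with either a lone drug or a fixed anchor-drug dose plus five library-drug doses (not always all listed) in √10 steps. Nuclei were counted on 4× images after 5 days. Relative viability is the ratio of treated-well to vehicle-well nuclei counts, with each value a median of duplicate plates.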

[2] = compound: CCOC1=CC=CC=C1N=NC2=C(NN(C2=O)C3=NC(=CS3)C4=CC=CC=C4)C [BAM7] + C[C@@H](Oc1cc(-c2cnn(C3CCNCC3)c2)cnc1N)c1c(Cl)ccc(F)c1Cl [Crizotinib] (partner 1 µM)
In short: as §1

[3] = compound: CCn1c(-c2nonc2N)nc2c(C#CC(C)(C)O)ncc(OC[C@H]3CCCNC3)c21 + O=C(CCCCCCC(=O)Nc1ccccc1)NO [Vorinostat] (partner 1 µM)
In short: as §1

[4] = compound: CCOC1=CC=CC=C1N=NC2=C(NN(C2=O)C3=NC(=CS3)C4=CC=CC=C4)C [BAM7] + Nc1ncn([C@H]2C[C@H](O)[C@@H](CO)O2)c(=O)n1 [Decitabine] (partner 2 µM)
In short: as §1

Cell Line	relative viability ([1]; first compound 0.01 µM)	relative viability ([1]; first compound 0.03162 µM)	relative viability ([1]; first compound 0.1 µM)	relative viability ([1]; first compound 0.3162 µM)	relative viability ([1]; first compound 1 µM)	relative viability ([2]; first compound 0.5 µM)	relative viability ([2]; first compound 5 µM)	relative viability ([2]; first compound 15.81 µM)	relative viability ([2]; first compound 50 µM)	relative viability ([3]; first compound 0.01 µM)	relative viability ([3]; first compound 0.1 µM)	relative viability ([3]; first compound 0.3162 µM)	relative viability ([3]; first compound 1 µM)	relative viability ([4]; first compound 0.5 µM)	relative viability ([4]; first compound 5 µM)	relative viability ([4]; first compound 15.81 µM)	relative viability ([4]; first compound 50 µM)	relative viability ([3]; first compound 0.03162 µM)
PC-3 [JPC-3]	0.847	0.943	0.833	0.827	0.859	0.913	0.942	0.784	0.827	0.553	0.73	0.76	0.751	0.775	0.808	0.688	0.766	
BEN	0.588	0.481	0.476	0.53	0.515	0.866	0.977	0.845	0.83	0.635	0.569	0.56	0.667	0.726	0.741	0.673	0.905	0.617
NCI-H1666	0.625	0.691	0.644	0.578	0.567	1.07	1.02	1.03	0.967	1.02	0.986	1	0.942	0.691	0.775	0.718	0.677	1.07
LC-2-ad	0.457	0.442	0.474	0.44	0.451	0.488	0.518	0.46	0.463	0.736	0.712	0.659	0.69	0.786	0.774	0.751	0.689	0.715
SK-LU-1	0.335	0.387	0.349	0.306	0.344	0.785	1.05	0.903	0.866	0.767	0.78	0.677	0.767	0.626	0.629	0.693	0.697	0.781
ChaGo-K-1	0.216	0.245	0.228	0.248	0.248	1.16	1.05	1.12	1.15	0.758	0.777	0.724	0.776	0.508	0.515	0.512	0.536	0.757
COR-L 105	0.31	0.432	0.407	0.367	0.374	0.917	1.02	0.787	0.718	0.913	0.915	0.724	0.707	0.606	0.7	0.678	0.622	0.804
NCI-H1975	0.768	0.715	0.757	0.777	0.658	0.792	0.773		0.824	0.705	0.717	0.631	0.684	0.372	0.377	0.351	0.382	0.72
NCI-H1993	0.585	0.591	0.549	0.609	0.574	0.751	0.843	0.771	0.826	1.01	0.825	0.776	0.543	0.582	0.633	0.498	0.551	0.805
RERF-LC-KJ	0.441	0.516	0.403	0.477	0.416	0.834	0.786	0.78	0.793	0.665	0.684	0.574	0.628	0.617	0.615	0.398	0.48	0.595
NCI-H23	0.398	0.438	0.568	0.384	0.432	0.587	0.535	0.424	0.515	0.559	0.626	0.558	0.531	0.347	0.332	0.322	0.304	0.591
HCC-366	0.135	0.12	0.194	0.111	0.129	0.552	0.654	0.471	0.641	0.278	0.329	0.367	0.372	0.325	0.327	0.319	0.313	0.3
EMC-BAC-2	0.297	0.287	0.268	0.255	0.262	0.849	0.852	0.74	0.857	0.203	0.448	0.429	0.448	0.973	1.05	1.01	1.12	
NCI-H2405	0.768	0.806	0.692	0.71	0.706	0.896	0.965	0.796	0.805	0.811	0.913	0.854	1.06	0.765	0.804	0.757	0.73	0.838
NCI-H358	0.0952	0.0863	0.103	0.1	0.097	0.76	0.589	0.522	0.52	0.766	0.787	0.629	0.662		0.199	0.232	0.224	0.691
NCI-H1944	0.287	0.247	0.266	0.236	0.249	0.984	1.15	0.839	0.821	0.645	0.568	0.514	0.585	0.407	0.405	0.41	0.403	0.477
EPLC-272H	0.337	0.512	0.261	0.186	0.274	0.928	0.986	1.02	0.982	0.507	0.573	0.393	0.571	0.382	0.418	0.317	0.392	0.426
NCI-H1915	0.439	0.424	0.422	0.413	0.464	0.892	0.918	0.874	0.891	0.57	0.474	0.513	0.5	0.266	0.259	0.249	0.281	0.526
